Test results taken from PMC11078746 (Nature, 2024).
Where two headings read alike, the source gives them in different places. One block for each molecule: values may come before it.

Legend:
SW48 xenografts = experiment: SW48 xenograft efficacy, HRO761, irinotecan and combination; type: in vivo, mouse
Procedure: (§1) All animal studies were conducted in accordance with ethics and procedures covered by permit BS-2275 and BS-1975 issued by the Kantonales Veterinäramt Basel-Stadt and in strict adherence to guidelines of the Eidgenössisches Tierschutzgesetz and the Eidgenössische Tierschutzverordnung, Switzerland. All animal studies were approved by the internal ethics committee. All animals had access to food and water ad libitum and were identified with transponders. They were housed in a specific-pathogen-free facility in IVC racks under a 12 h–12 h light–dark cycle. To establish cell-line-derived xenograft models, 6–7-week-old female athymic nude (Crl:NU(NCr)-Foxn1^nu) or SCID-BEIGE (CB17.Cg-PrkdcscidLystbg-J/Crl) mice from Charles River were engrafted subcutaneously with 5 million tumour cells in HBSS (H6648, Sigma-Aldrich). For SNU-407, Lovo, IM95, RL95.2, Ishikawa and IGROV-1, the cells were concentrated in 50% Matrigel (354234, Corning). Patient-derived xenografts were induced and expanded by transplantation as previously described. […] For the efficacy experiment, mice were randomized into groups (n = 5–6) for a mean tumour size of 100–150 mm^3. […] Blood samples were collected on day 7 and 91. […] Tumour responses are reported with the measures of tumour volumes from the treatment start. […] Animals were randomized (n = 3) and tumour samples were collected at 0, 1, 4, 8 and 24 h on the first day and then collected 4 h after the last treatment on day 3, 8, 10, 14 (including a 24 h timepoint), 17 and 21. Tumours were excised, weighed, either frozen in liquid nitrogen and cryogenic dry pulverized with the CryoPrep system (model CP-02, Covaris) or processed to FFPE after fixation. […] On day 12, blood samples were collected for PK analysis. On the last day (3 h after the last treatment), tumours were excised, weighed, frozen in liquid nitrogen and cryogenic dry pulverized for PD analysis.

TOV21G = experiment: CFA 10-14 day clonogenic assay; type: cell-based; conditions: Homo sapiens
Ishikawa = experiment: CFA 10-14 day clonogenic assay; type: cell-based; conditions: Homo sapiens
DLD-1 (HCT15) = experiment: CFA 10-14 day clonogenic assay; type: cell-based; conditions: Homo sapiens
[1] = tested on: CYP (all isoforms tested); experiment: CYP inhibition; type: in vitro ADME
LS180 = experiment: CFA 10-14 day clonogenic assay; type: cell-based; conditions: Homo sapiens
MSI CDX and PDX models = experiment: In vivo screen in a panel of CDX and PDX models; parameters: species or system mouse; conditions: 60 or 120 mg per kg once daily
Procedure: as §1

logD / logP = type: physicochemical; conditions: for logD: 1-octanol/water, pH 7.4, 1-octanol and water at pH 7.4
RL952 = experiment: CFA 10-14 day clonogenic assay; type: cell-based; conditions: Homo sapiens, RL95-2
SNUC2A = experiment: 4 day proliferation assay (CellTiter-Glo)
CAL33 = experiment: CFA 10-14 day clonogenic assay; type: cell-based; conditions: Homo sapiens, CAL-33
HCT116 cells = experiment: Cell cycle analysis by flow cytometry; type: cell-based, human; conditions: 10 µM for 24 h
Procedure: About 2 × 10^6 cells were collected by trypsin and washed once with PBS. Cells were pelleted and fixed in 100 µl 4% formaldehyde (Sigma-Aldrich, 47608) for 15 min at room temperature. Cells were washed by centrifugation with an excess of 1× PBS. Pellets were resuspended in 100 µl 1× PBS, then 900 µl of ice-cold methanol (Sigma-Aldrich, 34860) was added drop by drop while vortexing. Cells were incubated for 10 min on ice to permeabilize them. Cells were washed by centrifugation with excess of 1× PBS, pellets were resuspended in 100 µl anti-phosphorylated-histone H3 Ser10 conjugated to PE (Cell Signalling Technology, 5764) antibodies diluted 1:50 in 0.5% BSA PBS buffer and incubated for 1 h at room temperature protected from the light. […] Stained cells were analysed on the Cytoflex flow cytometer (Beckman Coulter).
Data were collected in 10^5 particle units and analysed with CytExpert v.2.4 software. […] These singlets were then analysed for DAPI (DNA content) and PE (phosphorylated histone H3 Ser10) staining intensities. Data were analysed to show the percentage of nuclei in the G1, S and G2/M phases using the DAPI channel and the percentage of cells specifically in G2 or M phase using the PE channel.

Rat PK = type: in vivo
Procedure: PK parameters were determined by non-compartmental analysis. Intravenous bolus studies in mouse, rat and dog were performed at 1, 1 and 0.1 mg per kg respectively (Extended Data Table 1).

HCT116 = experiment: 4 day proliferation assay (CellTiter-Glo)

Compound: CCc1c(N2CCN(C(=O)c3ncnc(C)c3O)CC2)c(=O)n2nc(C3=CCOCC3)nc2n1CC(=O)Nc1ccc(C(F)(F)F)cc1Cl [HRO761]
Mean TVol (mm3) (SW48 xenografts; HRO761 20mg/kg, day 0 post 1st dose): 247.56 mm3
Mean TVol (mm3) (SW48 xenografts; HRO761 20mg/kg, day 7 post 1st dose): 408.23 mm3
Mean TVol (mm3) (SW48 xenografts; HRO761 20mg/kg, day 14 post 1st dose): 343.04 mm3
Mean TVol (mm3) (SW48 xenografts; HRO761 20mg/kg, day 21 post 1st dose): 353.40 mm3
Mean TVol (mm3) (SW48 xenografts; HRO761 20mg/kg, day 28 post 1st dose): 598.05 mm3
Mean TVol (mm3) (SW48 xenografts; HRO761 20mg/kg, day 35 post 1st dose): 1006.91 mm3
Mean TVol (mm3) (SW48 xenografts; HRO761 20mg/kg, day 4 post 1st dose): 324.64 mm3
Mean TVol (mm3) (SW48 xenografts; HRO761 20mg/kg, day 11 post 1st dose): 389.58 mm3
Mean TVol (mm3) (SW48 xenografts; HRO761 20mg/kg, day 18 post 1st dose): 304.90 mm3
Mean TVol (mm3) (SW48 xenografts; HRO761 20mg/kg, day 25 post 1st dose): 411.31 mm3
Mean TVol (mm3) (SW48 xenografts; HRO761 20mg/kg, day 32 post 1st dose): 799.70 mm3
Mean TVol (mm3) (SW48 xenografts; HRO761 40mg/kg, day 0 post 1st dose, n=6): 170.74 mm3
Mean TVol (mm3) (SW48 xenografts; HRO761 40mg/kg, day 3 post 1st dose, n=6): 266.92 mm3
Mean TVol (mm3) (SW48 xenografts; HRO761 40mg/kg, day 7 post 1st dose, n=6): 238.47 mm3
Mean TVol (mm3) (SW48 xenografts; HRO761 40mg/kg, day 10 post 1st dose, n=6): 242.34 mm3
Mean TVol (mm3) (SW48 xenografts; HRO761 40mg/kg, day 14 post 1st dose, n=6): 187.67 mm3
Mean TVol (mm3) (SW48 xenografts; HRO761 40mg/kg, day 17 post 1st dose, n=6): 156.98 mm3
Mean TVol (mm3) (SW48 xenografts; HRO761 40mg/kg, day 21 post 1st dose, n=6): 121.57 mm3
Mean TVol (mm3) (SW48 xenografts; HRO761 40mg/kg, day 24 post 1st dose, n=6): 71.41 mm3
Mean TVol (mm3) (SW48 xenografts; HRO761 40mg/kg, day 28 post 1st dose, n=6): 43.54 mm3
Mean TVol (mm3) (SW48 xenografts; HRO761 40mg/kg, day 31 post 1st dose, n=6): 43.20 mm3
Mean TVol (mm3) (SW48 xenografts; HRO761 40mg/kg, day 35 post 1st dose, n=6): 52.04 mm3
Mean TVol (mm3) (SW48 xenografts; HRO761 40mg/kg, day 38 post 1st dose, n=6): 63.12 mm3
Mean TVol (mm3) (SW48 xenografts; HRO761 40mg/kg, day 43 post 1st dose, n=6): 108.93 mm3
Mean TVol (mm3) (SW48 xenografts; HRO761 40mg/kg, day 46 post 1st dose, n=6): 106.14 mm3
Mean TVol (mm3) (SW48 xenografts; HRO761 40mg/kg, day 49 post 1st dose, n=6): 165.61 mm3
Mean TVol (mm3) (SW48 xenografts; HRO761 40mg/kg, day 52 post 1st dose, n=6): 180.62 mm3
Mean TVol (mm3) (SW48 xenografts; HRO761 40mg/kg, day 56 post 1st dose, n=6): 250.37 mm3
Mean TVol (mm3) (SW48 xenografts; HRO761 40mg/kg, day 59 post 1st dose, n=6): 307.84 mm3
Mean TVol (mm3) (SW48 xenografts; HRO761 40mg/kg, day 63 post 1st dose, n=6): 385.98 mm3
Mean TVol (mm3) (SW48 xenografts; HRO761 40mg/kg, day 67 post 1st dose, n=6): 504.27 mm3
Mean TVol (mm3) (SW48 xenografts; HRO761 40mg/kg, day 70 post 1st dose, n=6): 521.42 mm3
Mean TVol (mm3) (SW48 xenografts; HRO761 40mg/kg, day 73 post 1st dose, n=6): 687.64 mm3
GI50 (TOV21G): 1.31 µM
GI50 (Ishikawa): 0.051 µM
GI50 (DLD-1 (HCT15)): ≥ 10 µM
IC50 [1]: > 25 µM
GI50 (LS180): 0.131 µM
complete responses (MSI CDX and PDX models): 9%
disease control rate (MSI CDX and PDX models): approximately 70%
partial responses (MSI CDX and PDX models): 30%
stable diseases (MSI CDX and PDX models): 35%
logP (logD / logP): 3.4
logD (logD / logP): 1.8
GI50 (RL952): 0.016 µM
GI50 (SNUC2A; Homo sapiens, 96 h, read-out: 4 day assay GI50, SNUC2A): 0.641 µM
GI50 (SNUC2A; read-out: 4 day assay GI50, SNUC2A): 0.542 µM
GI50 (CAL33): ≥ 10 µM
cell cycle effect (HCT116 cells): potent G2 cell cycle arrest
Rat PK, oral bioavailability (F) (Rat PK): 74 % F
GI50 (HCT116; Homo sapiens, HCT-116, 96 h, read-out: 4 day assay GI50, HCT116): 0.116 µM
GI50 (HCT116; read-out: 4 day assay GI50, HCT116): 0.143 µM

logD (logD / logP): 2.9
Rat PK, oral bioavailability (F) (Rat PK): 20 % F
Compound: CCc1c(N2CCN(C(=O)c3ncccc3O)CC2)c(=O)n2nc(C3=CCOCC3)nc2n1CC(=O)Nc1ccc(C(F)(F)F)cc1C [compound 3]
